Reference: patent publication US20130137573A1, “HERBICIDAL COMPOSITIONS COMPRISING, AND METHODS OF USE OF, HERBICIDALLY ACTIVE PYRANDIONES” (priority 2009, published 2013)

Experiments:
Format in all cases: in vivo
[1] = tested on: Echinochloa crus-galli (ECHCG); experiment: Biological Example 4 (Test 110): wet seeded rice (WSR) method, ECHCG damage; settings: for WSR ECHCG 0.5lf % herbicidal damage / WSR ECHCG 3lf % herbicidal damage: EC050 + 0.2% Adsee, foliar spray, 14 days after application; for WSR ECHCG 0.5lf % herbicidal damage: 0.5 leaf stage; for WSR ECHCG 3lf % herbicidal damage: 3 leaf stage
Source text: (§1) Rice seeds varieties IR-64 and Arborio, Echinochloa crus-galli (ECHCG), and Leptochloa chinensis (LEFCH) were sown in seed trays containing a standard sandy loam soil saturated with water replicating swampy conditions. They were sown at intervals to achieve plants at the following growth stages at time of application: IR-64 and Arborio rice: from 3 leaves on the main stem to tillering; ECHCG: at two different leaf stages: 0-0.5 leaf and 2-3 leaf; LEFCH: 3 leaf. Glasshouse bay conditions were 30/20° C. day/night; 18/6 hours light/dark; 75% humidity.
(§2) The test solutions were prepared by mixing the appropriate aliquots of the test substance (here, compound A-13 as EC050 Formulation Example 1) and adjuvant (0.2% Adsee as adjuvant) in de-ionised water to give the desired treatment concentration.
(§3) Application was as a foliar spray, made using a tracksprayer. 3 days after application the trays were flooded to 2-3 cm water depth, and maintained at this level for the duration of the test.
(§4) No. of repetitions: 1 test only.
(§5) A visual assessment of the % herbicidal damage was made 14 days after application (0=no damage to plants, 100=total kill).

[2] = tested on: Leptochloa chinensis (LEFCH); experiment: Biological Example 4 (Test 110): wet seeded rice (WSR) method, LEFCH damage; settings: EC050 + 0.2% Adsee, foliar spray, LEFCH 3 leaf, 14 days after application
Source text: as §1, §2, §3, §4, §5

Arborio rice = experiment: Biological Example 4 (Test 110): wet seeded rice (WSR) method, Arborio rice damage; settings: EC050 + 0.2% Adsee, foliar spray, 14 days after application
Source text: as §1, §2, §3, §4, §5

[3] = tested on: Echinochloa crus-galli (ECHCG); experiment: Biological Example 2 (Test 109): visual herbicidal damage to flooded ECHCG; settings: EC050, into flood water, 14 days after application
Procedure: (§6) Rice seeds, variety IR-64, were sown in seed trays, after 7 days they were transplanted as 3 groups of 2 plants, into pots containing a standard sandy loam soil saturated with water replicating swampy conditions. These were grown on for 9 days in a glasshouse bay (30/20° C. day/night; 18/6 hours light/dark; 75% humidity). Approx 10-20 seeds of Echinochloa crus-galli were sown into pots 13 days prior to application, in the same conditions as the rice. All pots were flooded to 2-3 cm water depth the day prior to application. Growth stages at time of application were: Rice: 2-3 leaves, ECHCG: 2-3 leaves.
The test solutions were prepared by mixing the appropriate aliquots of the test substance (here, compound A-13 as the EC050 Formulation Example 1 disclosed herein) in de-ionised water to give the desired treatment concentration.
(§7) Application was made by pipetting the required amount of the test solution gently into the flood water of the appropriate pot.
(§8) The test plants were grown on in the same glasshouse conditions, and watered twice daily keeping the flood water at a depth of 2-3 cm.
as §5

IR-64 rice = experiment: Biological Example 4 (Test 110): wet seeded rice (WSR) method, IR-64 rice damage; settings: for WSR Rice IR-64 % herbicidal damage: EC050 + 0.2% Adsee, foliar spray, 14 days after application
Source text: as §1, §2, §3, §4, §5

[4] = tested on: Echinochloa colona (ECHCO); experiment: Biological Example 4 (Test 110): dry seeded rice (DSR) method, ECHCO damage; settings: for DSR ECHCO 0.5lf % herbicidal damage / DSR ECHCO 3lf % herbicidal damage: EC050 + 0.2% Adsee, foliar spray, 14 days after application; for DSR ECHCO 0.5lf % herbicidal damage: 0.5 leaf stage; for DSR ECHCO 3lf % herbicidal damage: 3 leaf stage
Procedure: Echinochloa colona (ECHCO) seeds were sown in seed trays containing a standard sandy loam soil. They were sown at intervals to achieve plants at 0-0.5 leaf and 2-3 leaves at the time of application. Irrigation occurred to maintain the soil at moist but not saturated conditions. Glasshouse bay conditions were 30/20° C. day/night; 18/6 hours light/dark; 75% humidity.
as §2
Application was as a foliar spray, made using a tracksprayer.
The test plants were grown on in the same glasshouse conditions, and watered to maintain moist conditions.
as §4, §5

Koshihikari rice = experiment: Biological Example 4 (Test 110): transplanted (TPR) method, rice damage; settings: for Transplanted Rice Koshihikari % herbicidal damage: 14 days after application
Procedure: as §6, with “variety Koshihikari,” for “variety IR-64,”, “bay 30/20°” for “bay (30/20°”, “ECHCG: 4” for “ECHCG: 2-3”, “leaves. The test solutions were prepared by mixing the appropriate aliquots of the test substance (here, compound A-13 as EC050 Formulation Example 1) in de-ionised water to give the desired treatment concentration.” for “leaves.”
as §7, §8, §4, §5

## CC1(C)OC(C)(C)C(O)=C(c2cc(-c3ccc(Cl)cc3F)ccc2C2CC2)C1=O [compound A-13, 4-(4′-Chloro-4-cyclopropyl-2′-fluorobiphenyl-3-yl)-2,2,6,6-tetramethylpyran-3,5-dione]
[1]; 8 g/ha
  WSR ECHCG 0.5lf % herbicidal damage: 45%
  WSR ECHCG 3lf % herbicidal damage: 65%
[1]; 60 and 125 g/ha, 2 growth stages, 0.5 leaf and 3 leaf, wet seeded rice method
  WSR ECHCG control: 90-100%
[1]; 60 g/ha
  WSR ECHCG 0.5lf % herbicidal damage: 90%
  WSR ECHCG 3lf % herbicidal damage: 100%
[1]; 125 g/ha
  WSR ECHCG 0.5lf % herbicidal damage: 100%
  WSR ECHCG 3lf % herbicidal damage: 100%
[1]; 500 g/ha
  WSR ECHCG 0.5lf % herbicidal damage: 100%
  WSR ECHCG 3lf % herbicidal damage: 100%
[2]; 8 g/ha
  WSR LEFCH % herbicidal damage: 10%
[2]; 60 g/ha
  WSR LEFCH % herbicidal damage: 10%
[2]; 125 g/ha
  WSR LEFCH % herbicidal damage: 65%
[2]; 500 g/ha
  WSR LEFCH % herbicidal damage: 75%
Arborio rice; 8 g/ha
  WSR Rice Arborio % herbicidal damage: 0%
Arborio rice; 60 g/ha
  WSR Rice Arborio % herbicidal damage: 0%
Arborio rice; 125 g/ha
  WSR Rice Arborio % herbicidal damage: 0%
Arborio rice; 500 g/ha
  WSR Rice Arborio % herbicidal damage: 60%
[3]; 60 g/ha
  ECHCG % herbicidal damage: 68%
[3]; 120 g/ha
  ECHCG % herbicidal damage: 90%
[3]; 240 g/ha
  ECHCG % herbicidal damage: 98%
IR-64 rice; 8 g/ha
  WSR Rice IR-64 % herbicidal damage: 0%
IR-64 rice; 60 g/ha
  WSR Rice IR-64 % herbicidal damage: 0%
IR-64 rice; 125 g/ha
  WSR Rice IR-64 % herbicidal damage: 5%
IR-64 rice; 500 g/ha
  WSR Rice IR-64 % herbicidal damage: 35%
IR-64 rice; Biological Example 4, wet seeded rice, 60 and 125 g/ha
  selectivity margin between rice and ECHCG: good selectivity margin
[4]; 8 g/ha
  DSR ECHCO 0.5lf % herbicidal damage: 0%
  DSR ECHCO 3lf % herbicidal damage: 85%
[4]; 60 and 125 g/ha, 2 growth stages, 0.5 leaf and 3 leaf, dry seeded rice method
  DSR weed control, in words: controlled
[4]; 60 g/ha
  DSR ECHCO 0.5lf % herbicidal damage: 90%
  DSR ECHCO 3lf % herbicidal damage: 100%
[4]; 125 g/ha
  DSR ECHCO 0.5lf % herbicidal damage: 90%
  DSR ECHCO 3lf % herbicidal damage: 100%
[4]; 500 g/ha
  DSR ECHCO 0.5lf % herbicidal damage: 90%
  DSR ECHCO 3lf % herbicidal damage: 100%
Koshihikari rice; 60 g/ha, EC050, into flood water
  Transplanted Rice Koshihikari % herbicidal damage: 15%
Koshihikari rice; 125 g/ha, EC050 into flood water
  Transplanted Rice Koshihikari % herbicidal damage: 20%
Koshihikari rice; 500 g/ha, EC050 into flood water
  Transplanted Rice Koshihikari % herbicidal damage: 60%
Koshihikari rice; Biological Example 4, transplanted rice, 125 g/ha
  selectivity margin between rice and ECHCG: certain selectivity margin
